Holding throughout (format): cell-based, mouse
The test system of assay [1] is α7 integrin (LacZ reporter in α7+/LacZ myotubes). The assay can be described thus: Myotube α7 integrin FDG assay (Burkin assay in myotubes, 96-well). The note with it: myotubes.
The test system of assay [2] is β-galactosidase in CMV-LacZ C2C12 myotubes. The assay can be described thus: CMV-LacZ secondary screen in C2C12 myotubes (β-Gal stabilizing assay). To be noted: for CMV-LACZ in Myotubes (β-galactosidase activity relative to DMSO): CMV-LacZ C2C12 myotubes, 96-well format. The essentials: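 CMV-LacZ C2C12 line (clonal, FDG-screened); myoblasts/myotubes dosed 0.5–40 μM (0.5, 1, 5, 10, 20, 40 μM); n=2 per point; β-gal stabilization read-out.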

Assay [3] has as its system α7 integrin (LacZ reporter in α7βgal+/− myoblasts). The assay can be described thus: Myoblast α7+/LacZ integrin FDG assay (Burkin assay in myoblasts, 96-well). To be noted: α7+/LacZ myoblasts, 96-well.
[4] abbreviates: 5 uM, C2C12 CMV-LacZ myotubes, fold relative to DMSO.
Setting [5] is: 10 uM, C2C12 CMV-LacZ myotubes, fold relative to DMSO.
Setting [6] is: 20 uM, C2C12 CMV-LacZ myotubes, fold relative to DMSO.
The mark [7] stands for this setting: 40 uM, C2C12 CMV-LacZ myotubes, fold relative to DMSO.

For the compound `O=C(O)CCn1cc(/C=C2/NC(=S)N(c3ccccc3)C2=O)c(-c2ccccc2)n1` [MLS000585616-01], the fold induction at 0.5 µM in assay [1] (Mus musculus, Myotube, 0.5 uM, read-out: Burkin Assay in Myotubes (signal relative to DMSO)) was 0.999; in assay [3] (Mus musculus, Myoblast, 48 h, 0.5 uM, read-out: Burkin Assay in Myoblasts, value relative to DMSO) it was 0.681. The fold induction at 1 µM in assay [1] (Mus musculus, Myotube, 1 uM, read-out: Burkin Assay in Myotubes (signal relative to DMSO)) came to 0.958; in assay [3] (Mus musculus, Myoblast, 48 h, 1 uM, read-out: Burkin Assay in Myoblasts, value relative to DMSO) it was 0.943. The fold induction at 5 µM stood at 1.58 in assay [1] (Mus musculus, Myotube, 5 uM, read-out: Burkin Assay in Myotubes (signal relative to DMSO)); 0.903 in assay [2] (Mus musculus, C2C12, read-out: CMV-LACZ in Myotubes, signal relative to DMSO, 5 uM, C2C12 CMV-LacZ myotubes, fold relative to DMSO); 1.01 in assay [3] (Mus musculus, Myoblast, 48 h, 5 uM, read-out: Burkin Assay in Myoblasts, value relative to DMSO). Further, the fold induction at 10 µM is 1.15 in assay [1] (Mus musculus, Myotube, 10 uM, read-out: Burkin Assay in Myotubes (signal relative to DMSO)); 0.791 in assay [2] (Mus musculus, C2C12, read-out: CMV-LACZ in Myotubes, signal relative to DMSO, 10 uM, C2C12 CMV-LacZ myotubes, fold relative to DMSO); 0.977 in assay [3] (Mus musculus, Myoblast, 48 h, 10 uM, read-out: Burkin Assay in Myoblasts, value relative to DMSO). The fold induction at 20 µM in assay [1] (Mus musculus, Myotube, 20 uM, read-out: Burkin Assay in Myotubes (signal relative to DMSO)) was found to be 1.03; in assay [2] (Mus musculus, C2C12, read-out: CMV-LACZ in Myotubes, signal relative to DMSO, 20 uM, C2C12 CMV-LacZ myotubes, fold relative to DMSO), 0.91; in assay [3] (Mus musculus, Myoblast, 48 h, 20 uM, read-out: Burkin Assay in Myoblasts, value relative to DMSO) it was 0.935. For the same compound, the fold induction at 40 µM in assay [1] (Mus musculus, Myotube, 40 uM, read-out: Burkin Assay in Myotubes (signal relative to DMSO)) came out at 0.962; in assay [2] (Mus musculus, C2C12, read-out: CMV-LACZ in Myotubes, signal relative to DMSO, 40 uM, C2C12 CMV-LacZ myotubes, fold relative to DMSO), 0.879; in assay [3] (Mus musculus, Myoblast, 48 h, 40 uM, read-out: Burkin Assay in Myoblasts, value relative to DMSO), 0.932.

In the case of `Cc1ccccc1OCC(=O)Nc1nnc(-c2ccco2)s1` [MLS000333610-01], the “Burkin Assay in Myotubes, α7 integrin LacZ reporter signal relative to DMSO” value in assay [1] (0.5 uM) stood at 0.986; in assay [1] (1 uM), 1.039; in assay [1] (5 uM), 1.003; in assay [1] (10 uM), 0.9932; in assay [1] (20 uM), 0.8742; in assay [1] (40 uM) it was 0.9096. The “CMV-LACZ in Myotubes, signal relative to DMSO” value was 0.832 in assay [2] (setting [4]), 0.7867 in assay [2] (setting [5]), 0.9429 in assay [2] (setting [6]) and 0.9948 in assay [2] (setting [7]). Moreover, the “Burkin Assay in Myoblasts, signal relative to DMSO” value in assay [3] (0.5 uM) stood at 0.8664; in assay [3] (1 uM), 0.9253; in assay [3] (5 uM), 1.048; in assay [3] (10 uM) it was 0.9188; in assay [3] (20 uM), 0.7975; in assay [3] (40 uM) it was 0.7794.

As for `COc1ccc(S(=O)(=O)Nc2ccc(S(=O)(=O)Nc3nccs3)cc2)cc1` [MLS001218795-01], the “Burkin Assay in Myotubes, α7 integrin LacZ reporter signal relative to DMSO” value in assay [1] (0.5 uM) is given as 0.9648; in assay [1] (1 uM) it was 0.9363; in assay [1] (5 uM) it was 0.9778; in assay [1] (10 uM), 0.9991; in assay [1] (20 uM), 0.9463; in assay [1] (40 uM), 0.9606. Moreover, the “CMV-LACZ in Myotubes, signal relative to DMSO” value came out at 0.9553 in assay [2] (setting [4]), 1.023 in assay [2] (setting [5]), 1.2115 in assay [2] (setting [6]) and 0.989 in assay [2] (setting [7]). In addition, the “Burkin Assay in Myoblasts, signal relative to DMSO” value was 1.024 in assay [3] (0.5 uM); 0.9596 in assay [3] (1 uM); 0.8609 in assay [3] (5 uM); 0.9116 in assay [3] (10 uM); 0.9353 in assay [3] (20 uM); 0.9876 in assay [3] (40 uM).

Regarding `O=Cc1cnc(N2CCCCC2)s1` [MLS000721730-01], the “Burkin Assay in Myotubes (signal relative to DMSO)” value was 0.9195 in assay [1] (0.5 uM); 1.064 in assay [1] (1 uM); 0.8563 in assay [1] (5 uM); 1.025 in assay [1] (10 uM); 0.877 in assay [1] (20 uM); 1.071 in assay [1] (40 uM). For the same compound, the “CMV-LACZ in Myotubes (β-galactosidase activity relative to DMSO)” value in assay [2] (5 uM) is reported as 0.8504; in assay [2] (10 uM), 0.9207; in assay [2] (20 uM) it was 0.9311; in assay [2] (40 uM), 1.031. Moreover, the “Burkin Assay in Myoblasts, value relative to DMSO” value in assay [3] (0.5 uM) was 0.8377; in assay [3] (1 uM), 0.8197; in assay [3] (5 uM) it was 0.8157; in assay [3] (10 uM), 0.8824; in assay [3] (20 uM) it was 0.827; in assay [3] (40 uM), 0.9342.

Regarding `COc1ccc(C)cc1NC(=O)c1ccc2c(O)c(S(=O)(=O)c3ccccc3)c(=O)[nH]c2c1` [MLS001122718-01], the “Burkin Assay in Myotubes, α7 integrin LacZ reporter signal relative to DMSO” value in assay [1] (0.5 uM) was 1.011; in assay [1] (1 uM) it was 0.9435; in assay [1] (5 uM), 1.069; in assay [1] (10 uM), 1.106; in assay [1] (20 uM), 1.089; in assay [1] (40 uM), 0.9804. The “CMV-LACZ in Myotubes, signal relative to DMSO” value in assay [2] (setting [4]) came out at 0.8862; in assay [2] (setting [5]), 0.9662; in assay [2] (setting [6]) it was 0.9567; in assay [2] (setting [7]), 0.89. Also, the “Burkin Assay in Myoblasts, signal relative to DMSO” value in assay [3] (0.5 uM) stood at 1.1056; in assay [3] (1 uM), 1.041; in assay [3] (5 uM), 1.033; in assay [3] (10 uM), 0.9092; in assay [3] (20 uM), 0.9923; in assay [3] (40 uM), 0.9332.

For the compound `Cc1cccc(OCc2nc(C#N)c(N3CCCC3)o2)c1` [MLS000332693-01], the “Burkin Assay in Myotubes (signal relative to DMSO)” value came out at 1.0441 in assay [1] (0.5 uM); 0.9631 in assay [1] (1 uM); 1.092 in assay [1] (5 uM); 0.9798 in assay [1] (10 uM); 0.9709 in assay [1] (20 uM); 0.9252 in assay [1] (40 uM). Moreover, the “CMV-LACZ in Myotubes (β-galactosidase activity relative to DMSO)” value in assay [2] (5 uM) is given as 1.244; in assay [2] (10 uM), 0.9794; in assay [2] (20 uM), 0.8804; in assay [2] (40 uM) it was 0.9304. Also, the “Burkin Assay in Myoblasts, value relative to DMSO” value came out at 1.04 in assay [3] (0.5 uM); 0.9937 in assay [3] (1 uM); 1.068 in assay [3] (5 uM); 1.095 in assay [3] (10 uM); 0.895 in assay [3] (20 uM); 0.9225 in assay [3] (40 uM).

Consider `C[C@H](NS(=O)(=O)c1ccc(Cl)cc1)C(=O)OCC(=O)c1ccc[nH]1` [MLS000761297-01], for which the “Burkin Assay in Myotubes (signal relative to DMSO)” value in assay [1] (0.5 uM) stood at 1.0906; in assay [1] (1 uM), 1.022; in assay [1] (5 uM) it was 1.154; in assay [1] (10 uM), 1.033; in assay [1] (20 uM), 1.045; in assay [1] (40 uM), 1.093. The “CMV-LACZ in Myotubes (β-galactosidase activity relative to DMSO)” value in assay [2] (5 uM) was 0.9911; in assay [2] (10 uM), 0.8106; in assay [2] (20 uM) it was 0.993; in assay [2] (40 uM), 0.8829. The “Burkin Assay in Myoblasts, value relative to DMSO” value was 1.0693 in assay [3] (0.5 uM); 1.071 in assay [3] (1 uM); 1.121 in assay [3] (5 uM); 1.055 in assay [3] (10 uM); 1.072 in assay [3] (20 uM); 0.9526 in assay [3] (40 uM).

Source of the values: patent US9980943B2, “Methods of treating muscular dystrophy” (BOARD OF REGENTS OF THE NEVADA SYSTEM OF HIGHER EDUCATION, …, priority 2013, dated 2018).
